Measurements reported in patent US20190358247A1 (The Medical College of Wisconsin, Inc., priority 2016, published 2019).
Like-named read-outs stand apart in the source and are kept apart here.

Experiments:
[1] = test system: MiaPaCa-2 cells; assay: Oxygen consumption rate in intact cells, Seahorse XF96; assay type: cell-based, human
Description: (§1) Respiratory enzyme activity in intact and permeabilized cells. The mitochondrial function in intact and permeabilized pancreatic cancer cells was measured using a Seahorse XF96 Extracellular Flux Analyzer (Seahorse Bioscience, North Billerica, Mass., USA). Unless specified otherwise, assays in intact cells were performed as previously described. Measurement of mitochondrial respiratory complexes in permeabilized cells was performed according to the manufacturer's instructions (Seahorse Bioscience). Briefly, intact cells were permeabilized using 1 nM Plasma Membrane Permeabilizer (PMP, Seahorse Bioscience) immediately before oxygen consumption rate (OCR) measurement by XF96. The oxygen consumption derived from mitochondrial complex I or complex II activity was measured by providing different substrates to mitochondria, e.g., pyruvate/malate for complex I and succinate for complex II activity. Rotenone, malonate and antimycin A were used as specific inhibitors of mitochondrial complex I, II and III activities, respectively.
Effects of Met and Mito-Met analogs on mitochondrial bioenergetics in MiaPaCa-2 cells. The oxygen consumption rate (OCR) and the extracellular acidification rate (ECAR) were measured as a readout of mitochondrial function and glycolysis using a Seahorse Bioscience XF96 extracellular flux analyzer. We compared the immediate OCR changes in response to different concentrations (e.g., IC50 or higher values determined by clonogenic assay) of Met, Mito-Met2, Mito-Met6, Mito-Met10, and phenformin (FIG. 13A).
Next we monitored the mitochondrial OCR changes in MiaPaCa-2 cells after 24 h treatment with Met, Mito-Met analogs, and phenformin followed by a washout of the treatments and return to fresh cell culture media.

[2] = test system: MiaPaCa-2 cells; assay: Sytox Green cytotoxicity assay; assay type: cell-based; conditions: 100 μM, 24 h
Description: Cytotoxicity assay. To determine the cytotoxicity of Mito-Met analogs and other TPP^+-conjugated to a long chain aliphatic hydrocarbon, we used the Sytox assay as described previously. MiaPaCa-2 cells were treated for 24 h, and dead cells were monitored in the presence of 200 nM Sytox Green (Invitrogen). The Sytox method labels the nuclei of dead cells yielding green fluorescence. Fluorescence intensities from the dead cells in 96-well plate were acquired in real time every 15 min after 4 h using a plate reader (BMG Labtech, Inc.) equipped with an atmosphere controller set at 37° C. and 5% CO2:95% air, using a fluorescence detection with 485 nm (excitation) and 535 nm (emission). To measure the total cell number, all of the samples in each treatment group were permeabilized by adding Triton X 100 (0.065%) in the presence of Sytox Green for 3 h, and maximal fluorescence intensities were taken as 100%. Data are represented as a percentage of dead cells after normalization to total cell number for each group.
Induction of cell death was monitored by Sytox Green staining, as shown previously. MiaPaCa-2 cells were treated with Mito-Met10 (100 μM), Mito-CP (100 μM), or Met (30 mM) and other controls for 24 h and cell death was measured in real time.

[3] = molecular target: mitochondrial complex I (Homo sapiens, UniProt O75251+O75306+P03886); assay: Complex I oxygen consumption (pyruvate/malate) in permeabilized cells, Seahorse XF96; assay type: cell-based; design: IC50, complex I oxygen consumption; other: permeabilized MiaPaCa-2, added acutely; conditions: permeabilized MiaPaCa-2, added acutely
Sequence of mitochondrial complex I (P03886 whole entry): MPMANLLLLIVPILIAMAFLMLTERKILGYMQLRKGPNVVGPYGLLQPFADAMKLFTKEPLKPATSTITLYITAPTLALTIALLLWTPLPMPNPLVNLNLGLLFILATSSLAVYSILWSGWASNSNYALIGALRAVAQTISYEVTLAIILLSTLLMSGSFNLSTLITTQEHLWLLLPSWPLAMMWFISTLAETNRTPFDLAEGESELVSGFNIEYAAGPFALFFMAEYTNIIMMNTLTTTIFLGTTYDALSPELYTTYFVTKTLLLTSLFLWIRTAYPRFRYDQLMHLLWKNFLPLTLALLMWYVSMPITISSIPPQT
Sequence of mitochondrial complex I (O75251 39-213): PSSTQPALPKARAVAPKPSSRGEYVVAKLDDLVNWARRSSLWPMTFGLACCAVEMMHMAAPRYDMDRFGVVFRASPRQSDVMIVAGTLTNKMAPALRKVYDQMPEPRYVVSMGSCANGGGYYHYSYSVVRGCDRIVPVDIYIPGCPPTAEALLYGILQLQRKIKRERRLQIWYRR
Sequence of mitochondrial complex I (P03897 whole entry, further chain): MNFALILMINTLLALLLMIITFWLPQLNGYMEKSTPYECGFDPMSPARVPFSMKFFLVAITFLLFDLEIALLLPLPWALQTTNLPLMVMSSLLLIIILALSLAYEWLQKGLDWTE
Sequence of mitochondrial complex I (O75306 34-463): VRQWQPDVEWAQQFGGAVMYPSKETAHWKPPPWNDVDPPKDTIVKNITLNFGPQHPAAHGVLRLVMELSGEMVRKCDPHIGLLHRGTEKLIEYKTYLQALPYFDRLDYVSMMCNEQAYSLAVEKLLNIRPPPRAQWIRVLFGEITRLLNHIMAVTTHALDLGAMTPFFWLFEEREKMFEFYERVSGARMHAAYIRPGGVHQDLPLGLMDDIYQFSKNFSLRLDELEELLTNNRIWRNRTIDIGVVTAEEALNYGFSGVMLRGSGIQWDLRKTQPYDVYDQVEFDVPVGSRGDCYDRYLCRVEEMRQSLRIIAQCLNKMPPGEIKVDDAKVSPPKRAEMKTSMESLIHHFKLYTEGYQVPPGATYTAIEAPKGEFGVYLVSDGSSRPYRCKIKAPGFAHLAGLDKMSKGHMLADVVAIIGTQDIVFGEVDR
Sequence of mitochondrial complex I (O75489 37-264, further chain): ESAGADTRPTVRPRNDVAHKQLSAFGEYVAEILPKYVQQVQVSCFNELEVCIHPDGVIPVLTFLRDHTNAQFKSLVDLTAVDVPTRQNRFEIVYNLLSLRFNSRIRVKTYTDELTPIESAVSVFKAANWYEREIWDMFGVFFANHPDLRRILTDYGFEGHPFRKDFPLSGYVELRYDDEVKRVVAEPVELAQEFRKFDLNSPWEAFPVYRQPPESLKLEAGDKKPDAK
Description: as §1
The oxygen consumption rate was measured using the permeabilized MiaPaCa-2 cells in MAS buffer supplemented with pyruvate. The use of permeabilized cells avoids differences in cellular uptake of compounds. […] We tested the effect of pretreating cells with Mito-Met10 or Met using the permeabilized model. MiaPaCa-2 cells were treated with Met and Mito-Met10 for 24 h and the oxygen consumption studies were performed in these cells after permeabilization.

[4] = test system: MiaPaCa-2 cells; assay: Clonogenic (colony formation) assay; assay type: cell-based, human
Description: Clonogenic assay. […] The plates were kept within the incubator and media changed every 3-4 days until the control cells formed sufficiently large clones. The cell survival fractions were calculated as previously described.
MiaPaCa-2 cells were treated with a range of concentrations as shown (FIG. 10C), and the number of colonies formed were counted.

[5] = test system: MiaPaCa-2 cells; assay: Radiosensitization, clonogenic survival after X-radiation; assay type: cell-based, human; conditions: 24 h pretreatment (1 mM Met, 1 μM Mito-Met) before X-radiation
Description: MiaPaCa2 cells (1000 cells/well) were cultured in quadruplicate overnight in 96-well plates and changed to fresh medium.
Radiation experiments. […] The cells were then treated with X-radiation at a dose of 0, 2, 4, and 6 Gy. The control cells were treated with the same concentration of vehicle (0.1% DMSO) where appropriate. After irradiation, cells were suspended and seeded at various densities (100-8,000 cells per well) in 6-well plates for clonogenic assay as described above. The plates were kept within the incubator and media changed every 3-4 days for 2 weeks. Wells with 10-50 sufficiently large clones were chosen for calculating the cell survival fractions.
Effect of Mito-Met and Met on PDAC radiosensitivity. Both control cells and cells were pretreated for 24 h with 1 mM Met or Mito-Met (1 μM) prior to X-radiation. Cell survival was measured by a clonogenic assay.

[6] = test system: HaCaT; assay: IncuCyte cell confluence assay, keratinocytes; assay type: cell-based
Description: (§2) IncuCyte Analyzer-real time measurement of cell proliferation. The cell proliferation was measured using a label-free, noninvasive cellular confluence assay by IncuCyte Live-Cell Imaging Systems (Essen Bioscience, Ann Arbor, Mich., USA; IncuCyte FLR). This system enables collection of live cell images at 2 h intervals over several days. The IncuCyte Analyzer provides real-time cellular confluence data based on segmentation of high-definition phase-contrast images. The cell proliferation is expressed as an increase in percentage of cell confluence.

[7] = test system: MiaPaCa-2 cells; assay: Intracellular uptake by LC-MS/MS; conditions: MiaPaCa-2, 1 μM, 1 h
Description: Cells were grown on 10 cm dishes and treated with the compounds for 24 h in full media.
Next we investigated the relative uptake of different Mito-Met analogs (Mito-Met2, Mito-Met6, and Mito-Met10) and phenformin in MiaPaCa-2 cells (FIG. 12D). Cells were treated with respective Mito-Met analog (1 μM) for 1 h. Cells were lysed after washing and analyzed for Mito-Met analog by LC-MS.

[8] = test system: MCF-10A; assay: IncuCyte cell confluence assay, nonmalignant breast epithelial cells; assay type: cell-based
Description: as §2

[9] = mouse, in vivo
Description: In an initial proof-of-concept experiment, syngeneic KPC cells expressing Firefly luciferase (FC1242-luc) were orthotopically implanted to the pancreas of C57BL/6 mice and tumor growth monitored using bioluminescence imaging (FIG. 15F). Mice orthotopically autografted with FC1242-luc cells were treated daily with 1 mg/kg or 150 mg/kg Met, or 1 mg/kg Mito-Met. […] Serum from these animals was collected, and hepatic and kidney toxicity tested using standard AST, ALT, AP, and BUN assays, respectively.

Compound: [H]/N=C(/N)N/C(=N/[H])NCCc1ccccc1 [phenformin, reference compound]
- concentration inhibiting OCR to the same extent as Met ([1]; immediate): ten-fold lower concentration

Compound: Br.N=C(N)NC(=N)NCC[P+](c1ccccc1)(c1ccccc1)c1ccccc1 [Mito-Met2]
- concentration at which OCR was inhibited ([1]; 24 h treatment, washout): 25 µM

Compound: CC1(C)CC(OCCCCC[P+](c2ccccc2)(c2ccccc2)c2ccccc2)CC(C)(C)N1[O].[Br-] [Mito-Tempol, reference compound]
- cell death, Sytox Green staining [2]: considerably more cytotoxic

Compound: CN(C)C(=N)N=C(N)N [Metformin, metformin, reference compound]
- concentration at which OCR was inhibited [3]: 3,000 μM
- concentration decreasing oxygen consumption ([1]; OCR measured immediately after addition): 1 to 10 mM
- colony formation ([4]; 3 mM, 24 h): Almost no colony formation
- IC50 ([4]; read-out: IC50, colony formation / survival fraction, MiaPaCa-2, 24 h treatment): 1.3 mM
- radiosensitization [5]: increased radiosensitization
- effect on cell confluence [6]: not significantly affected
- cellular uptake compared with phenformin [7]: considerably lower than phenformin
- effect on cell confluence [8]: not significantly affected
- Kidney BUN ([9]; 1 mg/kg): 30 ± 7 mg/dL
- Liver ALT ([9]; 1 mg/kg): 35 ± 15 IU/L
- Liver AST ([9]; 1 mg/kg): 189 ± 117 IU/L
- Kidney BUN ([9]; 150 mg/kg): 22 ± 2 mg/dL
- Liver ALT ([9]; 150 mg/kg): 19 ± 3 IU/L
- Liver AST ([9]; 150 mg/kg): 127 ± 24 IU/L
